For one assay, the species on record is Homo sapiens. Put plainly: Concentration required to double the prothrombin based clotting time in human plasma. It is filed as functional.
The target in another assay is Prothrombin (Homo sapiens, UniProt P00734).
For the next assay, the target named is Coagulation factor X (Homo sapiens, UniProt P00742). Put plainly: In vitro inhibitory activity against human Coagulation factor X.
Another assay addresses T1, Serine protease 1 (Bos taurus, UniProt P00760).
T1 sequence (P00760 whole entry): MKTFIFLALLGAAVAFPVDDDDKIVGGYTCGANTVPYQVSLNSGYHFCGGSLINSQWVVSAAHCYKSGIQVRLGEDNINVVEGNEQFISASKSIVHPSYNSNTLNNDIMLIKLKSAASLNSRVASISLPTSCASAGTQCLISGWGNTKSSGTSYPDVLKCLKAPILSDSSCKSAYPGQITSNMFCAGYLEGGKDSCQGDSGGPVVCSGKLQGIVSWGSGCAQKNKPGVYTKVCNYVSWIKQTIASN
Put plainly: In vitro inhibitory activity against bovine cationic trypsin.

Broadly, the Ki is the equilibrium dissociation constant of an inhibitor or competing ligand from its target.

Structures are written as SMILES.

Sequence of Coagulation factor X (P00742 41-179 limits assumed): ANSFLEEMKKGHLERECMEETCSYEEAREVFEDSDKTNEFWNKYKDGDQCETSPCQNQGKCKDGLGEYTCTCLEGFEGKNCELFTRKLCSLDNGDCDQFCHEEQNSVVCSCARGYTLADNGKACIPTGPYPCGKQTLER
Sequence of Coagulation factor X (P00742 235-488 limits assumed): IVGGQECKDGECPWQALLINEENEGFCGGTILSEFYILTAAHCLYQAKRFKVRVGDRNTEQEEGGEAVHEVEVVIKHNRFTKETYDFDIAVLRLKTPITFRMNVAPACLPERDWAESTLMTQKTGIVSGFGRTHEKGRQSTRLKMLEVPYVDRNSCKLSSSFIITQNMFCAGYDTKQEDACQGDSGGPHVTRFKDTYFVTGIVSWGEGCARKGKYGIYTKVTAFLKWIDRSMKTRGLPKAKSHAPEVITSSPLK
Description for Prothrombin: In vitro inhibitory activity against human coagulation factor II

The compound `CCCc1nc2ccc(OC3CCN(C(C)=N)CC3)cc2n1Cc1ccc2ccc(C(=N)N)cc2c1` yielded a PT in the assay filed under Homo sapiens of 290 nM. Further, the Ki is 70 nM at Prothrombin, 0.23 nM at Coagulation factor X and 6.8 nM on Serine protease 1.
As to `CCCc1nc2cc(OC3CCN(C(C)=N)CC3)ccc2n1Cc1ccc2ccc(C(=N)N)cc2c1`, the values for the Ki at Prothrombin, at Coagulation factor X and on Serine protease 1 were 2400 nM, 4.5 nM and 16 nM, respectively.
For `CC(=N)N1CCC(Oc2ccc3c(c2)nc(CCC(=O)O)n3Cc2ccc3ccc(C(=N)N)cc3c2)CC1`, the Ki is over 5000 nM at Prothrombin, 5.9 nM on Coagulation factor X and 14 nM on Serine protease 1.
In the same order, the values of `CCC(C)c1nc2cc(OC3CCN(C(C)=N)CC3)ccc2n1Cc1ccc2ccc(C(=N)N)cc2c1` (stereo unspecified) are 2300 nM, 3.3 nM and 13 nM.
With `COC(=O)CN(c1ccc2nc(C)n(Cc3ccc4ccc(C(=N)N)cc4c3)c2c1)C1CCN(C(C)=N)CC1`, the inhibition constant (Ki) turned out to be 98 nM on Prothrombin, 0.3 nM on Coagulation factor X and 11 nM on Serine protease 1.
In the assay listed under Homo sapiens, `CC(=N)N1CCC(Oc2ccc3nc(C(C)C)n(Cc4ccc5ccc(C(=N)N)cc5c4)c3c2)CC1` came in with a PT of 68 nM. Besides, the Ki on Prothrombin is 32 nM; on Coagulation factor X it was 0.026 nM; on Serine protease 1, 5.7 nM.
As to `CC(=N)N1CCC(N(CC(C)C(=O)O)c2ccc3c(c2)nc(C)n3Cc2ccc3ccc(C(=N)N)cc3c2)CC1` (stereo unspecified), the figures for the inhibitory constant (Ki) on Prothrombin, on Coagulation factor X and at Serine protease 1 were 5000 nM, 80 nM and 120 nM, respectively.
As for `CC(=N)N1CCC(N(CC(N)=O)c2ccc3nc(C)n(Cc4ccc5ccc(C(=N)N)cc5c4)c3c2)CC1`, the Ki on Prothrombin is 490 nM; on Coagulation factor X, 0.46 nM; on Serine protease 1 it was 28 nM.
In the case of `CCC(C)c1nc2ccc(OC3CCN(C(C)=N)CC3)cc2n1Cc1ccc2ccc(C(=N)N)cc2c1` (stereo unspecified), in the assay filed under Homo sapiens, the PT amounted to 280 nM. Moreover, the inhibition constant Ki is 160 nM on Prothrombin, 0.12 nM at Coagulation factor X and 10 nM at Serine protease 1.
As for `CCOC(=O)CCC(=O)N(c1ccc2nc(C)n(Cc3ccc4ccc(C(=N)N)cc4c3)c2c1)C1CCN(C(C)=N)CC1`, the inhibitory constant (Ki) on Prothrombin was determined as 4600 nM; at Coagulation factor X it was 300 nM; on Serine protease 1, 256 nM.
Taken in the same sequence, the figures for `CC(=N)N1CCC(N(CCCC(=O)O)c2ccc3nc(C)n(Cc4ccc5ccc(C(=N)N)cc5c4)c3c2)CC1` were 5000 nM, 420 nM and 670 nM.
Turning to `CC(=N)N1CCC(Oc2ccc3nc(CCC(=O)O)n(Cc4ccc5ccc(C(=N)N)cc5c4)c3c2)CC1`, the Ki at Prothrombin turned out to be 2670 nM; at Coagulation factor X, 1.3 nM; at Serine protease 1, 18 nM.
Taken in the same sequence, the figures for `CC(=N)N1CCC(Oc2ccc3c(c2)nc(C)n3Cc2ccc3ccc(C(=N)N)cc3c2)CC1` were 3900 nM, 6.2 nM and 16 nM.
`COC(=O)CN(c1ccc2c(c1)nc(C)n2Cc1ccc2ccc(C(=N)N)cc2c1)C1CCN(C(C)=N)CC1`: the Ki at Prothrombin was 2700 nM; at Serine protease 1 it was 7.6 nM.
For `CC(=N)N1CCC(Oc2ccc3c(c2)nc(C(C)C)n3Cc2ccc3ccc(C(=N)N)cc3c2)CC1`, the values for the Ki at Coagulation factor X and on Serine protease 1 were 2 nM and 16 nM, respectively.
For the compound `CC(=N)N1CCC(N(CC(C)C(=O)O)c2ccc3nc(C)n(Cc4ccc5ccc(C(=N)N)cc5c4)c3c2)CC1` (stereo unspecified), the results for the Ki on Prothrombin, on Coagulation factor X and at Serine protease 1 were 650 nM, 3 nM and 47 nM, respectively.
The compound `CCCCc1nc2ccc(OC3CCN(C(C)=N)CC3)cc2n1Cc1ccc2ccc(C(=N)N)cc2c1` showed a PT in the assay filed under Homo sapiens of 625 nM. The values for the Ki on Prothrombin, on Coagulation factor X and on Serine protease 1 were 230 nM, 0.23 nM and 5.7 nM, respectively.
The compound `CC(=N)N1CCC(Oc2ccc3nc(C(C)(C)C)n(Cc4ccc5ccc(C(=N)N)cc5c4)c3c2)CC1` gave a PT in the assay filed under Homo sapiens of 260 nM. Also, the Ki on Prothrombin was 48 nM; on Coagulation factor X, 0.046 nM; at Serine protease 1, 7 nM.
`CC(=N)N1CCC(Oc2ccc3nc(C)n(Cc4ccc5ccc(C(=N)N)cc5c4)c3c2)CC1` returned a PT in the assay filed under Homo sapiens of 350 nM. At Prothrombin, the inhibition constant (Ki) stood at 230 nM.
Regarding `CC(=N)N1CCC(Oc2ccc3c(c2)nc(C(C)(C)C)n3Cc2ccc3ccc(C(=N)N)cc3c2)CC1`, the inhibition constant (Ki) on Prothrombin came out at 950 nM; on Coagulation factor X, 2 nM; at Serine protease 1, 18 nM.
In the same order, the values of `CCOC(=O)CCC(=O)N(c1ccc2c(c1)nc(C)n2Cc1ccc2ccc(C(=N)N)cc2c1)C1CCN(C(C)=N)CC1` are 5000 nM, 370 nM and 800 nM.
For the compound `CC(=N)N1CCC(Oc2ccc3c(c2)nc(CCC(N)=O)n3Cc2ccc3ccc(C(=N)N)cc3c2)CC1`, the inhibitory constant (Ki) is over 5000 nM at Prothrombin, 3.6 nM on Coagulation factor X and 10 nM on Serine protease 1.
Regarding `CCCCc1nc2cc(OC3CCN(C(C)=N)CC3)ccc2n1Cc1ccc2ccc(C(=N)N)cc2c1`, the Ki was 2000 nM on Prothrombin, 2.8 nM at Coagulation factor X and 14 nM at Serine protease 1.
As to `CC(=N)N1CCC(Oc2ccc3ncn(Cc4ccc5ccc(C(=N)N)cc5c4)c3c2)CC1`, in the assay listed under Homo sapiens, the PT was 450 nM. Besides, the results for the inhibitory constant (Ki) at Prothrombin, on Coagulation factor X and on Serine protease 1 were 810 nM, 2.9 nM and 50 nM, respectively.
Regarding `CC(=N)N1CCC(N(CCCC(=O)O)c2ccc3c(c2)nc(C)n3Cc2ccc3ccc(C(=N)N)cc3c2)CC1`, the Ki at Prothrombin was determined as 5000 nM; at Coagulation factor X it was 370 nM; on Serine protease 1, 800 nM.
In the same order, the values of `COC(=O)CCCN(c1ccc2c(c1)nc(C)n2Cc1ccc2ccc(C(=N)N)cc2c1)C1CCN(C(C)=N)CC1` are 6000 nM, 30 nM and 60 nM.
Consider `COC(=O)C(C)CN(c1ccc2nc(C)n(Cc3ccc4ccc(C(=N)N)cc4c3)c2c1)C1CCN(C(C)=N)CC1` (stereo unspecified), for which the values for the Ki at Prothrombin, at Coagulation factor X and on Serine protease 1 were 300 nM, 1.1 nM and 41 nM, respectively.
Taken in the same sequence, the figures for `CC(=N)N1CCC(N(C(=O)CCC(=O)O)c2ccc3nc(C)n(Cc4ccc5ccc(C(=N)N)cc5c4)c3c2)CC1` were 5000 nM, 417 nM and 670 nM.
Taken in the same sequence, the figures for `COC(=O)CCCN(c1ccc2nc(C)n(Cc3ccc4ccc(C(=N)N)cc4c3)c2c1)C1CCN(C(C)=N)CC1` were 4610 nM, 300 nM and 260 nM.
Compound `CCc1nc2ccc(OC3CCN(C(C)=N)CC3)cc2n1Cc1ccc2ccc(C(=N)N)cc2c1` showed a PT in the assay filed under Homo sapiens of 130 nM. The inhibitory constant (Ki) on Prothrombin came to 60 nM; at Coagulation factor X it was 0.087 nM; on Serine protease 1 it was 7.7 nM.
With `CC(=N)N1CCC(Oc2ccc3c(c2)ncn3Cc2ccc3ccc(C(=N)N)cc3c2)CC1`, the results for the inhibitory constant (Ki) on Prothrombin, at Coagulation factor X and on Serine protease 1 were over 5000 nM, 6.3 nM and 8.2 nM, respectively.
For the compound `CCc1nc2cc(OC3CCN(C(C)=N)CC3)ccc2n1Cc1ccc2ccc(C(=N)N)cc2c1`, the Ki at Prothrombin came out at 2100 nM; on Coagulation factor X, 4 nM; on Serine protease 1 it was 17 nM.
Turning to `COC(=O)C(C)CN(c1ccc2c(c1)nc(C)n2Cc1ccc2ccc(C(=N)N)cc2c1)C1CCN(C(C)=N)CC1` (stereo unspecified), the inhibitory constant (Ki) on Prothrombin was found to be 5000 nM; at Coagulation factor X, 80 nM; on Serine protease 1, 160 nM.
Taken in the same sequence, the figures for `CC(=N)N1CCC(Oc2ccc3nc(CCC(N)=O)n(Cc4ccc5ccc(C(=N)N)cc5c4)c3c2)CC1` were 590 nM, 1 nM and 4.4 nM.
